Key:
CDK9/CycT1 = target: T1, CDK9/CycT1 (Homo sapiens, UniProt P50750); assay: CDK9/CycT1 kinase assay (TR-FRET); format: biochemical; conditions: ATP 10 μM
T1 construct: Recombinant full-length His-tagged human CDK9 and CycT1; His; purchased Invitrogen PV4131; host or cells: insect cells
Text: CDK9/CycT1-inhibitory activity of compounds of the present invention was quantified employing the CDK9/CycT1 TR-FRET assay as described in the following paragraphs.
Recombinant full-length His-tagged human CDK9 and CycT1, expressed in insect cells and purified by Ni-NTA affinity chromatography, were purchased from Invitrogen (catalogue number PV4131). A biotinylated peptide biotin-Ttds-[…] (C-terminus in amide form), which can be purchased from e.g the company JERINI Peptide Technologies (Berlin, Germany), was used as a substrate for the kinase reaction.
(§1) For the assay, 50 nl of a 100-fold concentrated solution of the test compound in DMSO was pipetted into a well of a black low-volume 384-well microtiter plate (Greiner Bio-One, Frickenhausen, Germany), 2 μl of a solution of CDK9/CycT1 in aqueous assay buffer [50 mM Tris/HCl pH 8.0], 10 mM MgCl2, 1.0 mM dithiothreitol, 0.1 mM sodium ortho-vanadate, 0.01% (v/v) Nonidet-P40 (Sigma)] were added. The mixture was incubated at 22° C. for 15 min to allow pre-binding of the test compounds to the enzyme before the start of the kinase reaction. […] The resulting mixture was incubated at 22° C. for a reaction time of 25 minutes. The concentration of CDK9/CycT1 was adjusted depending of the activity of the enzyme lot and was chosen appropriately for measurements in the linear range of the assay. Typical concentrations were in the range of 1 μg/ml. The reaction was stopped by the addition of 5 μl of a solution of TR-FRET detection reagents (0.2 μM streptavidine-XL and 1 nM anti-RB(pSer807/pSer811)-antibody from BD Pharmingen [#558389] and 1.2 nM LANCE EU-W1024 labeled anti-mouse IgG antibody [Perkin-Elmer, product no. AD0077]) in an aqueous EDTA-solution (100 mM EDTA, 0.2% (w/v) bovine serum albumin in 100 mM HEPES/NaOH, pH 7.0).
(§2) The resulting mixture was incubated at 22° C. for one hour to allow the formation of a complex between the phosphorylated biotinylated peptide and the detection reagents. Subsequently, the amount of phosphorylated substrate was evaluated by measurement of the resonance energy transfer from the Eu-chelate to the streptavidine-XL. Therefore, the fluorescence emissions at 620 nm and 665 nm after excitation at 350 nm were measured in a HTRF reader, e.g. a Rubystar (BMG Labtechnologies, Offenburg, Germany) or a Viewlux (Perkin-Elmer). The ratio of the emissions at 665 nm and at […] was taken as a measure for the amounts of phosphorylated substrate. The data were normalised, i.e. enzyme reaction without inhibitor corresponds to 0% inhibition, and all other assay components in the absence of the enzyme correspond to 100% inhibition. IC50 values were calculated by a 4-parameter fit using in-house software.

CDK2/CycE = target: T2, CDK2/CycE (Homo sapiens, UniProt P24941); assay: CDK2/CycE kinase assay (TR-FRET); format: biochemical; conditions: ATP 10 μM
T2 construct: GST; purchased ProQinase GmbH (Freiburg, Germany); host or cells: insect cells (Sf-9)
Text: CDK2/CycE-inhibitory activity of compounds of the present invention was quantified employing the CDK2/CycE TR-FRET assay as described in the following paragraphs.
Recombinant fusion proteins of glutathione S-transferase (GST) and human CDK2 and of GST and human CycE, expressed in insect cells (Sf-9) and purified by glutathion-sepharose affinity chromatography, were purchased from ProQinase GmbH (Freiburg, Germany). A biotinylated peptide biotin-Ttds-[…] (C-terminus in amide form), which can be purchased from e.g the company JERINI Peptide Technologies (Berlin, Germany), was used as a substrate for the kinase reaction.
as §1, with “of CDK2/CycE” for “of CDK9/CycT1”, “for” for “for a reaction time of”, “depending on” for “depending of”, “of 130 ng/ml.” for “of 1 μg/ml.”
as §2, with “measuring” for “measurement of”, “high time-resolved fluorometry (HTRF)” for “HTRF”

CDK9/Cyclin T1 = target: T3, CDK9/Cyclin T1 (Homo sapiens, UniProt P50750); assay: LanthaScreen Eu Kinase Binding Assay, CDK9/Cyclin T1; conditions: tracer 236, read-out: Affinity (Kd) CDK9/Cyclin T1
T3 construct: purchased Invitrogen
Procedure: (§3) This protocol describes how the LanthaScreen Eu Kinase Binding Assay was performed to determine dissociation constants (Kd) of compounds of general formula (I) and CDK/Cyclin complexes. The principle behind this assay is based upon the binding and displacement of an Alexa Fluor 647-labeled tracer, which binds to the active site of kinases. Binding of the tracer to the kinase is detected using a Eu-labeled antibody. Simultaneous binding of both the tracer and antibody to the kinase gives rise to a FRET-signal. Binding of an inhibitor to the kinase competes for binding with the tracer, resulting in a loss of FRET.
(§4) The compounds of general formula (I) summarized in Table 1 were diluted from a 10 mM DMSO stock solution 1:10 in a total volume of 15 μL DMSO. This compound predilution was then serial diluted 1:3 over 8 steps in DMSO and briefly spun down. Each compound solution was now diluted 1:33.33 in kinase buffer (HEPES: 20 mM, pH: 8.0; MgCl2: 10 mM; DTT: 1 mM; Brij-35: 0.01%), mixed thoroughly and spun down. For every sample, 5 μL of the diluted compound were mixed with 5 μL tracer working solution (e.g. 60 nM tracer 236 in kinase buffer for CDK2/Cyclin A) and 5 μL CDK/Cyclin/Anti-GST-AB-working solution (e.g. 15 nM CDK2/Cyclin A, 1:250 dilution of Anti-GST-AB in kinase buffer) in a well of a small volume 384 well plate (Corning Incorporated, Corning, N.Y., USA; order no. 3673). […] For positive controls, in each well 5 μL of DMSO working solution (3% DMSO diluted in kinase buffer) was mixed with 5 μL CDK/Cyclin/Anti-GST-AB-working solution: (e.g. 15 nM CDK2/Cyclin A, 1:250 dilution of Anti-GST-AB in kinase buffer) and 5 μL Tracer working solution (e.g. 60 nM Tracer 236 in kinase buffer for CDK2/Cyclin A). Positive and negative controls were calculated from at least 8 different sample wells. The 384 well plates were mixed in a Teleshaker plate mixer (Beckman Coulter, Brea, Calif., USA) at 2000 rpm for 40 sec, and incubated for 1 h at room temperature before reading. The FRET signal was measured at 340 nm excitation, 665 nm and 615 nm emission (for the kinase tracer and LanthaScreen Eu-AB, respectively) with an Envision spectrophotometer (Perkin Elmer, Waltham, Mass., USA) with 50 μs delay and 300 μs integration time. Kd values were determined from the sigmoidal dose response curves with the software Quattro Workflow (Quattro GmbH, Munich, Germany).

CDK2/CyclinA = target: T4, CDK2/CyclinA (Homo sapiens, UniProt P24941); assay: LanthaScreen Eu Kinase Binding Assay, CDK2; conditions: tracer 236, read-out: Affinity (Kd) CDK2
T4 construct: purchased Proqinase
Procedure: as §3, §4

CDK7/CyclinH/Mat1 = target: T5, CDK7/CyclinH/Mat1 (Homo sapiens, UniProt P50613); assay: LanthaScreen Eu Kinase Binding Assay, CDK7; conditions: tracer 236, read-out: Affinity (Kd) CDK7
T5 construct: purchased Carna Biosciences
Procedure: as §3, §4

CDK9/Cyclin K = target: T6, CDK9/Cyclin K (Homo sapiens, UniProt P50750); assay: LanthaScreen Eu Kinase Binding Assay, CDK9/Cyclin K; conditions: tracer 236, read-out: Affinity (Kd) CDK9/Cyclin K
T6 construct: purchased Invitrogen
Procedure: as §3, §4

T1 sequence (P50750 whole entry): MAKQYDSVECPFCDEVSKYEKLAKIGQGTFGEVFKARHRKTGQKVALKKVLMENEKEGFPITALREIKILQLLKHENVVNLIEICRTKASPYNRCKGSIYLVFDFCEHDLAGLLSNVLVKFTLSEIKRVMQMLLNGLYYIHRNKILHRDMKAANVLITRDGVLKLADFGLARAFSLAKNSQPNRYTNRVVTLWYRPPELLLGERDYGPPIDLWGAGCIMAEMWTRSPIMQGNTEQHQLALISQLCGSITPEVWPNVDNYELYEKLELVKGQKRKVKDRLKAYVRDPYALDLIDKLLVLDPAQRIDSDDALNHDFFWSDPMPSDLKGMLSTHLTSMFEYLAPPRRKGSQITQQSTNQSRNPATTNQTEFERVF
T1 sequence (O60563 whole entry partner): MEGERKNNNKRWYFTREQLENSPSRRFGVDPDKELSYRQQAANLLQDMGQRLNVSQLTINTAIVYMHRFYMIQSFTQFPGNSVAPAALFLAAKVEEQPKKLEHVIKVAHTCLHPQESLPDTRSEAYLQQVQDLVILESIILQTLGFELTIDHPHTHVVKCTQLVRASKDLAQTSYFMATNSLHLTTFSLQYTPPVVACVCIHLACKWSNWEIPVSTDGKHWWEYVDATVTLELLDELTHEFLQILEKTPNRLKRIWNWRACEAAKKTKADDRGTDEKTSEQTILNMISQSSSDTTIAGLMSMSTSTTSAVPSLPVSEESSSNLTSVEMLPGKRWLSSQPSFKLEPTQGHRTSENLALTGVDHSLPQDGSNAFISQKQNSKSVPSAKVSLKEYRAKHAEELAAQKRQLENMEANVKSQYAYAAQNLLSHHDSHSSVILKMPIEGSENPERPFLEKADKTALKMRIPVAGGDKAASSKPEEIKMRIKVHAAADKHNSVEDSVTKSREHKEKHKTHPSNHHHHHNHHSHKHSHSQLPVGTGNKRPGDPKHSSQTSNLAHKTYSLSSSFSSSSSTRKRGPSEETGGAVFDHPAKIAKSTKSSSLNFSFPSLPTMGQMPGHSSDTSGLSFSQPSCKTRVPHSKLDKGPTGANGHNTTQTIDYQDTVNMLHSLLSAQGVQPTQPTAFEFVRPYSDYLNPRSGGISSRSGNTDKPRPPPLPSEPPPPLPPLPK
T5 sequence (P50613 whole entry): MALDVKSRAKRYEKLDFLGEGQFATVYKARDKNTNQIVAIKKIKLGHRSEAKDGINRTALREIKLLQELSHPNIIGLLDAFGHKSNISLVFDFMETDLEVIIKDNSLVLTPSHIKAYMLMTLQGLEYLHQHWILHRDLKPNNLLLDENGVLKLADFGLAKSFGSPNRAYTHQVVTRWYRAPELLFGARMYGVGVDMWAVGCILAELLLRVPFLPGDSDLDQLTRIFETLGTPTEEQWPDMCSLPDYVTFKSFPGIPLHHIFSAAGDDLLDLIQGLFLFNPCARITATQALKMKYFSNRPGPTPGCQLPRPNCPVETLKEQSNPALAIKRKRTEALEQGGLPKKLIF
T5 sequence (P51946 whole entry partner): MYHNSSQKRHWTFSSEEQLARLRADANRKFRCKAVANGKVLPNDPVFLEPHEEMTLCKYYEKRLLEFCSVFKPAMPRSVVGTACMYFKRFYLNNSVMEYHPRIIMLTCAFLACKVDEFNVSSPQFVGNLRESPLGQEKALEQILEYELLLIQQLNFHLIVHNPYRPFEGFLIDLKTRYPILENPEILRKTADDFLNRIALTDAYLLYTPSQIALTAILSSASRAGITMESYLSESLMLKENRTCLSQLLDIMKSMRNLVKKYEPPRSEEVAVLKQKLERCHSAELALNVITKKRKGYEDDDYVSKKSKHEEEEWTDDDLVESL
T5 sequence (P51948 whole entry partner): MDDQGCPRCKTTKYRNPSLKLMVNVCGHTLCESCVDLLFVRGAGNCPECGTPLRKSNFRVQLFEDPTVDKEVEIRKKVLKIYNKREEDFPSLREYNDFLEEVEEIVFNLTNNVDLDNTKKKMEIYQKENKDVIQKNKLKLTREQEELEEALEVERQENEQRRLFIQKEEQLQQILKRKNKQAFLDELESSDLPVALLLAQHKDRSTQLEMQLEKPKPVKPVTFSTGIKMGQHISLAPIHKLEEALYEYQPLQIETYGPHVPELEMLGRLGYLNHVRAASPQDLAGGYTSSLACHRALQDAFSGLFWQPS
T3 sequence (P50750 whole entry): as the sequence (P50750 whole entry) above
T3 sequence (O60563 whole entry partner): as the sequence (O60563 whole entry partner) above
T6 sequence (P50750 whole entry): as the sequence (P50750 whole entry) above
T6 sequence (O75909 whole entry partner): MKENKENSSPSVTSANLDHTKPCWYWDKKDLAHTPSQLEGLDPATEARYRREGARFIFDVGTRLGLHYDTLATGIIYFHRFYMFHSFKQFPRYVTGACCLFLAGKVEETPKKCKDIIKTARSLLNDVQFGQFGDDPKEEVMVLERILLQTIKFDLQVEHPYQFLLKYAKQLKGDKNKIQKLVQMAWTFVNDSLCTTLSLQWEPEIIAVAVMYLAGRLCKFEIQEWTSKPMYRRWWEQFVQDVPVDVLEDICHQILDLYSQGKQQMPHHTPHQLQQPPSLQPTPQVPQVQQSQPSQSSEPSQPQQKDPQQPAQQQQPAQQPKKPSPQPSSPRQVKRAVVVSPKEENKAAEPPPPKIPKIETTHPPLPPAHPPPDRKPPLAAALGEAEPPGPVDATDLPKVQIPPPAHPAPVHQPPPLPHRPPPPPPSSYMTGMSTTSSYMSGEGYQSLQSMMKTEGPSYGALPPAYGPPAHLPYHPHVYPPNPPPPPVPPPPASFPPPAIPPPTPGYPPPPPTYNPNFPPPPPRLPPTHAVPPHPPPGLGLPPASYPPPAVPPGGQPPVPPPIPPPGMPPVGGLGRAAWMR

Row | Compound | IC50 (CDK9/CycT1; values in nM) | IC50 (CDK9/CycT1; values given in μM) | IC50 (CDK2/CycE; values given in μM) | other results
1 | COc1cc(F)ccc1-c1ncnc(Nc2cccc(CS(=O)(=O)NCCCCN)c2)n1 [Compound R1, N-(4-Aminobutyl)-1-[3-((4-(4-fluoro-2-methoxyphenyl)-1,3,5-triazin-2-yl)amino)phenyl]methanesulfonamide] |  |  |  | Kd (CDK9/Cyclin T1): 0.005 µM; Kd (CDK2/CyclinA): 2.92 µM; Kd (CDK7/CyclinH/Mat1): > 10 µM; Kd (CDK9/Cyclin K): 0.005 µM
2 | CC(=O)Nc1cc(F)ccc1-c1ncnc(Nc2cccc(CS(N)(=O)=O)c2)n1 [Compound U4, N-[5-fluoro-2-(4-{[3-(sulfamoylmethyl)phenyl]amino}-1,3,5-triazin-2-yl)phenyl]acetamide] |  | 3600 nM | 3000 nM | 
3 | COc1c(-c2ncnc(Nc3cccc(CS(N)(=O)=O)c3)n2)ccc(F)c1F [Compound U6, 1-(3-{[4-(3,4-difluoro-2-methoxyphenyl)-1,3,5-triazin-2-yl]amino}phenyl)methanesulfonamide] | 370 nM |  | 12000 nM | 
4 | Cc1ccc(Cl)cc1-c1ncnc(Nc2ccc(Cl)cc2)n1 [Ref3, [6-(5-Chloro-2-methyl-phenyl)-[1,3,5]triazin-4-yl]-(4-chloro-phenyl)-amine, reference compound] |  | > 20000 nM | > 20000 nM | 

The next lines start with results.

Row | IC50 (CDK9/CycT1; values in nM) | IC50 (CDK9/CycT1; values given in μM) | IC50 (CDK2/CycE; values given in μM) | Compound | other results
5 | 10 nM |  |  | COc1ccccc1-c1ncnc(Nc2cccc(S(N)(=O)=O)c2)n1 [Compound C1, 3-[(4-(2-Methoxyphenyl)-1,3,5-triazin-2-yl)amino]benzenesulfonamide] | IC50 (CDK2/CycE; values in nM): 450 nM
6 |  | 15000 nM | 15000 nM | NS(=O)(=O)Cc1cccc(Nc2ncnc(-c3ccc(F)cc3C(F)(F)F)n2)c1 [Compound U1, 1-[3-({4-[4-fluoro-2-(trifluoromethyl)phenyl]-1,3,5-triazin-2-yl}amino)phenyl]methanesulfonamide] | 
7 | 34 nM |  | 1600 nM | NS(=O)(=O)Cc1cccc(Nc2ncnc(-c3ccc(F)cc3OCC3CC3)n2)c1 [Compound U5, 1-[3-({4-[2-(cyclopropylmethoxy)-4-fluorophenyl]-1,3,5-triazin-2-yl}amino)phenyl]methanesulfonamide] | 
8 |  | 8400 nM | 14000 nM | NC(=O)c1ccc(Nc2ncnc(-c3ccccc3NC(=O)c3ccccc3)n2)cc1 [Ref5, 4-[4-(2-Benzoylaminophenyl)-[1,3,5]triazin-2-ylamino]benzamide, reference compound] | 

— patent US20130079345A1, “[…] ACTIVE DISUBSTITUTED TRIAZINE DERIVATIVES” (BAYER INTELLECTUAL PROPERTY GMBH, priority 2010, published 2013)
